Assay results: patent US20240009256A1, “USE OF PROBIOTIC BACTERIUM-DERIVED EXTRACELLULAR MICRO- AND/OR NANOPARTICLES FOR THE TREATMENT OF DISEASE” (University of Louisville Research Foundation, Inc., priority 2020, published 2024)

Assays:
EGFR = molecular target: T1, EGFR (Mus musculus, UniProt Q01279); test: LDNPs-mediated EGFR activation in LPS-treated Raw264.7 cells with AG1478; type: cell-based; settings: AG1478 150 nM
T1 construct: endogenous in cells; host or cells: Raw264.7
Procedure: (§1) Real-time quantitative PCR Total mRNA was extracted from mouse liver and intestine tissues using Trizol reagent (Life Technologies, Carlsbad, California, United States of America) according to the manufacturer's instruction and reverse-transcribed using cDNA Supermix (QuantaBio, Beverly, Massachusetts, United States of America). 18S and Gapdh were used as internal controls. Real-time qPCR was performed on an ABI 7300 fast real-time PCR thermocycler, where SYBR green PCR Master Mix (Applied Biosystems, Foster City, California, United States of America) was used. The relative gene expression was determined by the ΔΔCT method.
Raw264.7 cells were pretreated with LDNPs (0.2 μg/ml) or the EGFR inhibitor AG1478 (150 nM) for 20 hours and then treated with LPS for 4 hours to induce inflammation response as depicted in the top panel of the FIG. 13A. The bottom panel of FIG. 13A is a representative western blot of phosphorylated EGFR (P-EGFR Tyr 1068), Total-EGFR, PI3K, phosphorylated Akt (P-Akt), total-Akt, phosphorylated NF-κB (P-NF-κB), and β-actin showing that expression of several of these proteins were modulated by LDNP treatment.

AhR = test: ALD mouse model with AhR inhibitor CH223191 co-administration; type: in vivo
Procedure: Animals and treatments. C57BL/6J mice (6-8 weeks of age) from Jackson Laboratory (Bar Harbor, Maine, United States of America) were maintained at 22° C. with a 12 hour light/dark cycle and initially had free access to a normal chow diet and tap water. Mice were then fed the Lieber DeCarli Diet containing 5% alcohol (w/v) (Alcohol-fed, AF) or isocaloric maltose dextrin (Pair-fed, PF). For the AF groups, mice were initially fed the control Lieber-DeCarli liquid diet (Bio-Serve, Flemington, New Jersey, United States of America) for 5 days to acclimate to the liquid diet. […] Mice in PF group were fed isocaloric maltose dextrin in substitution for alcohol in the liquid diet. On experimental Day 10, a bolus of EtOH (5 g/kg body weight) was given to AF mice by gavage 9 hours before harvesting, while mice in PF groups received a gavage of isocaloric maltose dextrin (10d+1b model). LDNPs were administered to mice in the last 3 days by daily gavage of 200 μL of LDNPs (50 μg protein content). AhR inhibitor, CH223191 (Sigma-Aldrich, St. Louis, Missouri, United States of America) was gavaged at […] in last three days. Control mice were gavaged with an equal volume of control vehicle (PBS).
Whether the beneficial effects of LDNPs in ALD were mediated by the intestinal AhR pathway was tested by administrating the AhR inhibitor CH223191 to alcohol-fed mice. […] Importantly, the suppressive effect on hepatic fat by LDNP treatment was blunted when CH223191 was co-administered.

[1] = test system: lamina propria lymphocytes (LPLs); test: AhR signaling in lamina propria lymphocytes; type: cell-based, mouse; settings: AhR inhibitor 10 μM
Caco-2 cells = test: Tight junction, Cyp1a1 and Nrf2 expression in Caco-2 cells; type: cell-based, human
Procedure: as §1
Western Blotting. Protein was extracted from frozen intestine tissues. Western blotting was performed as described in (Shao et al. (2018) Intestinal HIF-1α deletion exacerbates alcoholic liver disease by inducing intestinal dysbiosis and barrier dysfunction. Journal of Hepatology 69:886-895). Antibodies used for western blotting for proteins ZO-1, Occludin, and Claudin-1 were from Cell Signaling (Danvers, Massachusetts, United States of America). Nrf-2, β-actin and Histone H3 antibodies were purchased from Abcam (Cambridge, Massachusetts, United States of America). For western blotting in Caco-2 cell derived NPs and LDNPs, CD 63 antibody from System Bioscience (Palo Alto, California, United States of America) was used.
Cell culture. Mouse macrophages RAW 264.7 and the human intestinal epithelial cells Caco-2 were maintained in DMEM-high glucose and EMEM-high glucose (Corning; 10-009CV) respectively. The medium was supplemented with 10% fetal bovine serum, 1X penicillin-streptomycin solution (100U/ml penicillin, and 100 μg/ml streptomycin; Sigma Aldrich) in a humidified atmosphere (5% CO2, 95% air, 37° C.). Peritoneal macrophages and bone marrow-derived macrophages (BMDM) were isolated from mice as described in (Ying et al. (2013) Investigation of Macrophage Polarization Using Bone Marrow Derived Macrophages. Journal of Visualized Experiments 76:50323.). Isolated BMDM were then cultured in modified DMEM medium with macrophage colony-stimulating factor (M-CSF), which is a cytokine that directs cell differentiation. Cells were utilized for experimentation at 70-80% confluence. RAW264.7, peritoneal macrophages (PMs) and bone marrow-derived macrophages (BMDMs) were pretreated with LDNPs (0.2 μg/ml for 20 hours) and then treated with E. coli-derived lipopolysaccharides (LPS; O55:B5; Sigma) at 100 ng/mL concentration for 4 hours. Caco-2 cells at 70-80% confluence were treated with LDNPs (0.2 μg/ml), I3A (0.1 mM), the AhR inhibitor, CH-223191 (10 μM) or Nrf2 inhibitor, ML385 (5 μM) for 24 hours. Lamina propria lymphocytes (LPLs) were treated with LDNPs (0.2 μg/ml), I3A (0.1 mM) or the AhR inhibitor, CH223191 (10 μM) for 24 hours.
Measurement of Cvp1A1 enzyme activity in vitro. Caco-2 cells (50,000 cells/well) were plated in a 48-well plate. Cells were then treated with LDNPs (0.2 μg/ml) or Indole-3-aldehyde (I3A, 0.1 mM) for 24 hours. After treatment, cells were washed to remove any residual LDNPs or I3A, then the wells were replenished with fresh medium containing Cyp1A1 substrate as per the protocol provided with a P450-GLO™ CYP1A1 Assay System brand kit (Promega Corporation, Madison, Wisconsin, United States of America) for 3 hours. After incubation, 25 μl of culture medium was removed from each well and transferred to a 96-well white opaque plate and 25 μl of luciferin detection reagent was added to initiate the luminescence reaction and plate was incubated at room temperature for 20 minutes. After incubation, luminescence was recorded using a luminometer. The data were reported as foldchange over vehicle treatment.

[2] = alcohol-fed, CH223191 co-administered
[3] = alcohol-fed, co-fed with CH223191
[4] = Caco-2, LDNPs 0.2 μg/ml, I3A 0.1 mM, 24 hours

T1 sequence (Q01279 25-1210): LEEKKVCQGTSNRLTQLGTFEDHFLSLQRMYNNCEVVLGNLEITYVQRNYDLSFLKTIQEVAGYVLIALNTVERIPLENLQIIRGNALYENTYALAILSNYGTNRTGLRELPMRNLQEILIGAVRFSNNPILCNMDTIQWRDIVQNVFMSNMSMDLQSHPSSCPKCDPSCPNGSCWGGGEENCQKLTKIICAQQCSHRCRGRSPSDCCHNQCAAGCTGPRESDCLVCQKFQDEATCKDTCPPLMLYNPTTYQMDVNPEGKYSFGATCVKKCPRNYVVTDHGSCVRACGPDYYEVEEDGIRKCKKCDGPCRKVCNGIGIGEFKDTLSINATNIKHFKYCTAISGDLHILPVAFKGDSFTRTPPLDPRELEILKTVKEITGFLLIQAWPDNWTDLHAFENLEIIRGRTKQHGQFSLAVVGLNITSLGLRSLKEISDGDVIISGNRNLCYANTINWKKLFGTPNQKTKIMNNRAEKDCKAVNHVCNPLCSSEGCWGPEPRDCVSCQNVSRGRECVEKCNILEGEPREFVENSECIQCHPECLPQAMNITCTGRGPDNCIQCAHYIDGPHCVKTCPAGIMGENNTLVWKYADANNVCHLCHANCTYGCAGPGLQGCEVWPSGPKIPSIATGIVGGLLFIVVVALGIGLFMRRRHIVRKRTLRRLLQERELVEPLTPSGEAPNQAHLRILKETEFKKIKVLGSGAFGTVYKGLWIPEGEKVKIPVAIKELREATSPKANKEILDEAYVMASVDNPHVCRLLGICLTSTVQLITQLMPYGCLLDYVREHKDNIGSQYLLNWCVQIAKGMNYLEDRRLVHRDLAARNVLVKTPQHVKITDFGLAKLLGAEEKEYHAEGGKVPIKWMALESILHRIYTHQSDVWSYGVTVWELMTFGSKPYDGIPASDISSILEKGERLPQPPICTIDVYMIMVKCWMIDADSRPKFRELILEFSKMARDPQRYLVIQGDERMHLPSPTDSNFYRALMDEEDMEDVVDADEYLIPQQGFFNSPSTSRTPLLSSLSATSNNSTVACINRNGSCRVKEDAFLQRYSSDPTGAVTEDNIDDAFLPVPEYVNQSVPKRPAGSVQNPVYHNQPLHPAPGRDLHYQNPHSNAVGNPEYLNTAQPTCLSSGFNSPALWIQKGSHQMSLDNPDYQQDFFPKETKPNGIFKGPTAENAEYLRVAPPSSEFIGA

COc1cc2ncnc(Nc3cccc(Cl)c3)c2cc1OC [AG1478]
LDNP-mediated reduction of IL-1β mRNA (EGFR): inhibited
LDNP-mediated reduction of TNF-α mRNA (EGFR): inhibited

Cc1ccccc1N=Nc1ccc(NC(=O)c2ccnn2C)c(C)c1 [CH223191]
ileum Nqo1 mRNA expression (AhR; AF mice, agent alone): reduced
ileum Nrf2 mRNA expression (AhR; AF mice, agent alone): reduced
LDNP-induced increase of IL-22 protein (AhR; [2]): completely inhibited
LDNP-induced increase of Il22 mRNA (AhR; [2]): completely inhibited
suppressive effect of LDNP treatment on hepatic fat (AhR; [2]): blunted
upregulation of Reg3g by LDNPs (AhR; [2]): blocked
ileum Cyp1a1 mRNA expression (AhR; alcohol-fed, LDNPs gavaged with the inhibitor): no change
IL-22 protein expression (AhR; alcohol-fed, agent alone): reduced
hepatic bacteria load (AhR; alcohol-fed, agent alone): significantly increased
hepatic fat accumulation (AhR; alcohol-fed, agent alone): significantly increased
ileum Cyp1a1 mRNA expression (AhR; alcohol-fed, agent alone): reduced
ileum Il22 mRNA expression (AhR; alcohol-fed, agent alone): reduced
ileum Reg3g mRNA expression (AhR; alcohol-fed, agent alone): reduced
serum ALT (AhR; alcohol-fed, agent alone): slightly increased
serum AST (AhR; alcohol-fed, agent alone): slightly increased
effects of LDNPs on serum ALT (AhR; [3]): blocked
effects of LDNPs on serum AST (AhR; [3]): blocked
effect of LDNPs on hepatic bacteria load (AhR; alcohol-fed, inhibitor co-administered): blocked
LDNPs-induced Cyp1a1 mRNA expression [1]: completely inhibited
LDNPs-induced Il22 mRNA expression [1]: completely inhibited
LDNPs-induced upregulation of IL-22 protein [1]: completely inhibited
LDNPs-induced Cyp1a1 mRNA expression ([1]; listed as CH229131): blocked
LDNPs-induced Il22 mRNA expression ([1]; listed as CH229131): blocked
I3A-induced Cyp1a1 activity (Caco-2 cells): blocked
I3A-induced Cyp1a1 mRNA expression (Caco-2 cells): blocked
LDNP-induced Cyp1a1 activity (Caco-2 cells): blocked
LDNP-induced Cyp1a1 mRNA expression (Caco-2 cells): blocked
LDNP-induced Nrf2 mRNA expression (Caco-2 cells): blocked
LDNP-induced Nrf2 protein expression (Caco-2 cells): blocked

O=Cc1c[nH]c2ccccc12 [I3A, indole-3-aldehyde]
protein expression of tight junction proteins (Caco-2 cells; Caco-2, LDNPs 0.2 μg/ml, I3A 0.1 mM): increased
Cyp1a1 activity (Caco-2 cells; [4]): markedly increased
Cyp1a1 mRNA expression (Caco-2 cells; [4]): markedly increased

Cc1ccccc1C(=O)N1CCc2cc(-c3nc(NC(=O)Cc4ccc5c(c4)OCO5)sc3C)ccc21 [ML385]
LDNP-induced Cyp1a1 activity (Caco-2 cells): not
LDNP-induced Cyp1a1 mRNA expression (Caco-2 cells): blocked
LDNP-induced Nrf2 mRNA expression (Caco-2 cells): completely inhibited
LDNP-induced Nrf2 protein expression (Caco-2 cells): completely inhibited
